As usually defined, the half-life is the time needed for the level to fall by half in the phase considered. As usually defined, the Cmax is the highest concentration seen after dosing.

The test system of data set [1] is healthy subjects. The data set can be described thus: Adaptive tracking test. The class given is in vivo, human. Particulars: single dose 160 μg clenbuterol. The text has this: Adaptive tracking measures visuomotor coordination and vigilance. In this test, the subject uses a joystick to move a small dot so that it stays within a continuously moving circle on a computer screen (Boland 1984). During the test, the speed of the circle is adjusted in response to the subject's ability to keep the dot in the circle, ensuring that the test is adapted to the individual subject. […] The improvement shown by subjects is in the same range as that seen with subjects treated with the acetylcholinesterase inhibitor donepezil, which is in clinical use for the treatment of mild to moderate AD (Groeneveld 2016).

The test system of data set [2] is healthy volunteers. The data set can be described thus: Cerebral blood flow by ASL MRI in healthy volunteers (Example 6).
Description: In the 4 cohorts of healthy volunteers, study drug was administered as follows:
All subjects received single oral dose of 20 μg clenbuterol on Day 1, and a single oral dose of 40 μg clenbuterol on Day 8, with ASL MRI scans before and 3 hours after dosing on both days.
All subjects received a single oral dose of 80 μg clenbuterol on Day 1, with ASL MRI scans before, and 3 hours 1 day and 2 days after clenbuterol administration to evaluate the longevity of the ASL MRI signal
ASL MRI scans were conducted before and 3 hours after clenbuterol administration on Day 1 and Day 7.
ASL MRI scans were conducted before and 3 hours after clenbuterol administration on Day 2 and Day 9.
All scans were conducted using pseudo continuous ASL MRI. Only subjects with no contraindications to being in a strong magnetic field were evaluated by MRI. Participants were positioned comfortably and supine in the head coil to minimize any motion during the scan with proper back support, and support under the knees for comfort and to reduce motion in the scan, and the head was centered in the head coil and velcro straps or foam padding were used to reduce motion.
Imaging was performed on a GE Signa PET-MR 3T system.
For accurate quantitative measurements of brain structures a high-resolution T1-weighted, 3D volumetric sequences (e.g., MP-RAGE, IR-FSPGR) in the sagittal plane. Scan parameters of the pCASL sequence were: straight axial/transversal slices, labeling duration=1.8s, post-labeling delay=2.0 s, 15-20 cm slab thickness, pCASL average labeling gradient 1 mT/m, pCASL slice selective labelling gradient 10 mT/m, pASL TI1 (QUIPSS II Saturation Time) 800 ms, pASL labeling slab thickness 15-20 cm, 70 volumes, spatial resolution 3 mm in-plane/5 mm through-plane/gap 1 mm, 3D RARE stack-of-spiral or 3D GRASE 4-15 ms readouts, turbo-factor of 8 to 12; echo train of up to 300 ms, 2D EPI Single shot, minimum echo time, and duration 5 min.
Multiple ROIs were evaluated including whole brain, cortex, subcortical, thalamus, amygdala, hippocampus, and cerebellum which were chosen due to their relevance for cognition or alertness, and the periaqueductal grey for its relevance to motor control. Grey matter (GM) masking was applied for reporting of CBF in the GM of these ROIs.
Regional mean CBF values were extracted for each ROI and subsequently, the CBF for each region was compared before and after administration of clenbuterol.
Baseline/Predose versus Postdose change (%) for each subject and each region was calculated as 100*(Postdose_CBF−Baseline_CBF)/(Baseline_CBF). For each region, the cohort summary of CBF change (=mean relative displacement, MRD) was described by the group mean and standard deviation of the individual CBF changes.
Data set [3] deals with human subjects. The data set is described as follows: Cerebral blood flow after a single dose of clenbuterol and/or nadolol, or pindolol (Example 1). It counts as in vivo.
For data set [4], the system named is healthy subjects. The data set can be described thus: Cognitive performance, CuraSen study CLIN-003. It counts as in vivo, human. The settings on record: daily dose of 80 μg CST-103, healthy subjects, preliminary data. An excerpt:
(§1) It was hypothesized that by improving cerebral perfusion, particularly in areas of the brain that are relevant for symptoms that are commonly found in PD and MCI, the administration of a β-AR agonist would have a positive effect on clinically relevant symptoms such as memory and cognition.

In data set [5] the test system is healthy subjects. The data set is described as follows: Cerebral perfusion by ASL MRI after single doses of clenbuterol (Example 3). The class given is in vivo, human. As for the experimental part: In a clinical study, healthy subjects were administered doses of clenbuterol ranging from 20 to 160 μg and ASL MRI was conducted prior to and after dosing with an objective to ascertain whether this neuroimaging method enables the detection of a clinically relevant CNS signal.
In a region of interest (ROI) analysis focusing on the hippocampus, which is well understood to be affected in neurodegenerative disorders, a single dose of 80 μg of clenbuterol causes a robust increase in perfusion (see FIG. 7). […] Our hypothesis is that by improving cerebral perfusion, particularly in areas of the brain that are relevant for symptoms that are commonly found in neurodegenerative diseases such as PD and AD, the administration of a β-AR agonist (such as a β-agent) will have a positive effect on clinically relevant symptoms such as memory and cognition.

Data set [6] has as its system subjects with MCI or PD. The data set is described as follows: Cerebral blood flow by ASL MRI in subjects with MCI or PD (Example 6). It counts as in vivo, human. The settings on record: for CBF MRD in the hippocampus, repeat dose comparison: 80 μg clenbuterol without nadolol; for CBF mean (±SEM) MRD in hippocampus / CBF mean (±SEM) MRD in whole brain: Day 9, N=4.
A short description of data set [7]: ASL MRI cerebral perfusion, CuraSen study CLIN-002. It counts as in vivo. Particulars: CST-103 80 and 160 μg.
From the text: as §1

Data set [8] relates to healthy volunteers and subjects with MCI or PD. The data set is described as follows: Safety and tolerability (TEAEs, heart rate, blood pressure, labs), Example 6. Particulars: for mean increase in supine heart rate from baseline: no nadolol.
Description: (§5) Safety and tolerability were evaluated by questioning for adverse events (AEs), triplicate 12-lead ECGs, laboratory safety tests on urine and blood with multiple chemistry panels including potassium, blood glucose levels, vital sign measurements, and physical examinations at regular time-points during the study.
A short description of data set [9]: Plasma pharmacokinetics of clenbuterol and nadolol (Example 6). Particulars: human, in vivo.
From the text: (§6) Pharmacokinetic (PK) parameters were computed from the individual plasma drug concentrations using a non-compartmental approach.
Data set [10] deals with subjects. The data set can be described thus: Visual verbal learning test (VVLT). It counts as in vivo, human. Particulars: for effect on the VVLT (learning and memory): crossover study, 3 agents plus placebo. The method, then: Subjects are presented 30 words on a screen, one at a time, for 1 second with a 1-second interval between words over a total of 1 minute. This is repeated in 3 trials. After each trial, subjects are asked to recall as many words as they can. […] Since this was a crossover study, everyone who completed Part A was dosed with the 3 agents plus placebo.

A short description of data set [11]: clinical. The settings on record: human, in vivo; for Cmax: po.
From the text: as §6
Data set [12] is described as follows: Prior CuraSen studies of low-dose nadolol (CST-107) on peripheral β2-AR agonist effects. The settings on record: 1 mg nadolol (CST-107), co-administered with 80 μg CST-103.
The subject of data set [13] is healthy volunteers and subjects with MCI or PD. The settings on record: in vivo.
Description: as §5
Data set [14] deals with healthy volunteers. The data set is described as follows: Peripheral effects of Compound 03-5 (heart rate, glucose, potassium, tachycardia, tremor, palpitations) with nadolol. The class given is in vivo, human. The method, then: Data are presented as individual observations for all available subjects.
(§2) On all dosing days, study drug(s) were administered orally after an overnight fast of at least 8 hours.
(§3) Routine measures of ECG, vital signs, safety labs, physical exams and plasma sample collections for analysis of drug pharmacokinetics (PK) were undertaken according to the Schedule of Events (Table 1).
(§4) In Cohort D2, 8 healthy volunteers aged 55-75 years were admitted on Day −1 for a 5-day confinement period at the research facility. […] Subjects remained in-residency until all study procedures are completed on Day 4. • ? Compound 03-5 dose administration. Compound 03-5 was administered as escalating doses on Day 1 (1 mg), Day 2 (3 mg) and Day 3 (10 mg). CANTAB was conducted twice in all subjects on the day prior to start of dosing (Day −1) to familiarize subjects with the platform, and prior to dosing and approximately 3 hours after Compound 03-5 administration on Days 1, 2, and 3.

For data set [15], the system named is healthy volunteers aged 55-75 years. The data set is described as follows: CANTAB cognition battery, Cohort D2. The class given is in vivo, human. The settings on record: Compound 03-5 1, 3, 10 mg once daily, 2 h after 3 mg nadolol. As for the experimental part: Data are presented as mean changes from the within-day pre-dose assessment.
as §4

Data set [16] concerns healthy volunteers. The data set is described as follows: Heart rate by triplicate ECG, Compound 03-5 with or without nadolol. It counts as in vivo, human. Particulars: 6 mg Compound 03-5 after pre-administration of 1 mg nadolol. The method, then: Heart rate was measured by triplicate ECG recordings. Data are presented as means changes from time-matched measures recorded on the day before the first dose of study drug (Day −1).
as §2, §3

Where [17] appears, read: doses of 80 and 160 μg clenbuterol.
[18] abbreviates: 80 μg clenbuterol, absence of nadolol.
Where [19] appears, read: 80 μg clenbuterol, presence of 1 mg nadolol.

“Also recorded” adds a separate entry of the source.

With `CC(C)(C)NCC(O)c1cc(Cl)c(N)c(Cl)c1` (stereo not drawn) [clenbuterol], in data set [1], the “performance in adaptive tracking (percent time dot kept within moving circle)” value is given as “improved adaptive tracking; also recorded: performance in adaptive tracking improves”. In addition, the “cognition as measured by adaptive tracking and word recall” value in [1] (healthy subjects, preliminary data) was “improves cognition”. For the same compound, the “CBF mean (±SEM) percent relative displacement (MRD) from baseline in the hippocampus” value in [2] (20 μg clenbuterol, no nadolol (first value of the list)) was −1.7±1.3%; in data set [2] (160 μg clenbuterol in the absence of nadolol), 28.5±4.1%. Further, the “CBF mean SEM MRD from baseline” value in [2] (160 μg clenbuterol about 2.5 h after 5 mg nadolol (Day 9)) is listed as 14.0±6.5%. Moreover, the “CBF by ASL MRI” value in data set [2] (20, 40, 80 and 160 μg clenbuterol, absence of nadolol) is listed as “dose-dependent increase in CBF”. Moreover, the entries for the “CBF change from baseline” value in data set [2] (3 hours after single dose of 80 μg clenbuterol), in [2] (24 hours after single dose of 80 μg clenbuterol) and in [2] (48 hours after single dose of 80 μg clenbuterol) were “increases in CBF from baseline are evident”, “decreased but still evident” and “returned to baseline”, respectively. Further, the “cerebral blood flow (CBF) relative to baseline” value in data set [3] (single dose clenbuterol 160 μg) is “robust global increase in cerebral blood flow (CBF); also recorded: positive increase in cerebral blood flow”; in data set [3] (single dose clenbuterol 160 μg and nadolol 5 mg), “robust global increase in cerebral blood flow (CBF)”; in data set [3] (single dose clenbuterol 30 to 160 μg (nadolol 5 mg in some subjects), tracked 3 days), “robust global increase in cerebral blood flow (CBF)”. Moreover, the cognitive performance result in data set [4] is given as “improves cognitive performance”. For the same compound, the “cerebral perfusion as measured by CBF” value in data set [5] (clenbuterol dose of 40 μg) is listed as “minimal increase”; in data set [5] (clenbuterol doses below 30 μg) it was “do not produce significant cerebral perfusion increases”. Further, the “improvements in perfusion in brain areas relevant to neurodegenerative disorders” value in data set [5] (setting [17]) is approximately 25%. The “increases in cerebral perfusion in hippocampus and thalamus” value in data set [5] (setting [17]) was 20% to 25. In data set [5] (single dose 80 μg clenbuterol, 6 healthy subjects aged 44-52), the “increase in hippocampal perfusion, average” value stood at 25%. For the same compound, the “cerebral perfusion (ASL MRI)” value in [5] (single dose 160 μg clenbuterol, healthy subjects) is “robust global increase in cerebral perfusion”; in data set [7], “robust global increase in cerebral perfusion”. The “CBF MRD in the hippocampus, repeat dose comparison” value in [6] (Day 2, 4 subjects) was found to be 17.55±6.37%; in data set [6] (Day 9, 4 subjects) it was 14.72±10.56%. Moreover, the results for the “CBF mean (±SEM) MRD in hippocampus” value in data set [6] (setting [18]) and in data set [6] (setting [19]) were 14.7±10.6% and 12.5±5.7%, respectively. Also, the “CBF mean (±SEM) MRD in whole brain” value amounted to 4.8±12.6% in data set [6] (setting [18]) and 5.9±8.6% in [6] (setting [19]). Besides, the “CBF in multiple brain regions incl. hippocampus and thalamus” value in [6] (80 μg clenbuterol, with and without pre-administration of 1 mg nadolol) is “Significant increases in CBF”. For the same compound, the “increase in cerebral perfusion in the hippocampus” value in data set [7] is “up to 28%”. Moreover, the “increase in cerebral perfusion in the thalamus” value in [7] was “up to 15%”. In addition, the “decrease in heart rate from baseline” value in data set [8] (3 hours after 160 μg clenbuterol with pre-administration of 5 mg nadolol) came to 2.75 bpm. The “overall safety and tolerability” value in data set [8] (all subjects) is “overall safe and well tolerated”. For the same compound, in data set [8] (all subjects enrolled), the “severity of TEAEs” value is listed as “mild-to-moderate”. Further, in [8] (clenbuterol in the absence or presence of nadolol), the “effects on supine, sitting or standing blood pressure” value is on record as “no clinically meaningful effects”. For the same compound, the “subjects with TEAEs considered related to clenbuterol” value is listed as 12/25 in [8] (healthy volunteers) and 6/8 in data set [8] (subjects with neurodegenerative disease). Also, the “mean increase in supine heart rate from baseline” value is reported as 7.5 bpm in data set [8] (healthy volunteers, 3 hours after 20 μg clenbuterol); 7.5 bpm in [8] (healthy volunteers, 3 hours after 40 μg clenbuterol); 9.2-12.38 bpm in [8] (healthy volunteers, 3 hours after 80 μg clenbuterol); 30.5 bpm in [8] (healthy volunteers, 3 hours after 160 μg clenbuterol). Also, the “increase in heart rate” value in data set [8] (subjects with MCI or PD, 80 μg clenbuterol) was 10.67-14.65 bpm. In [9], this compound showed a half-life of 720 to 1860 min. The “effect on the VVLT (learning and memory)” value in data set [10] is listed as “positive effects on the VVLT”. Further, the “VVLT improvement in correctly recalled words” value in data set [10] (immediate and delayed recall, crossover study vs placebo) is recorded as 1.5 to 2 correctly recalled words.

Turning to `CC(C)(C)NCC(O)c1ccc(O)c(CO)c1` (stereo not drawn) [salbutamol], the “effect on the VVLT (learning and memory)” value in [10] was “positive effects on the VVLT”.

In data set [11], `CC(C)(C)NCC(O)COc1cccc2c1CC(O)C(O)C2` (stereo not drawn) [nadolol] had a half-life of 420 to 780 min. Besides, the Cmax lay within 1 to 1.5 ng/mL in data set [11] (1 mg) and 2.8 to 4 ng/mL in data set [11] (4 mg). Also, in data set [12], the “attenuation of peripheral β2-AR agonist effects (heart rate, palpitations, tremors, potassium, glucose)” value is given as “could attenuate these peripheral effects; also recorded: sufficient to inhibit peripheral β2-AR agonist mediated effects”. Moreover, the “TEAEs considered related to nadolol” value in data set [8] (all subjects enrolled) was “No TEAEs”. The “side effects of β2-agonist (increased heart rate, tremor, palpitations)” value in data set [8] (pre-administration of nadolol) was “mostly eliminated”. Also, in data set [13], the “increase in heart rate after 80 μg clenbuterol” value is “effectively blocked”. In data set [14] (Cohort D1, 1 mg nadolol pre-administered, Compound 03-5 orally up to 6 mg), the “effect of nadolol on Compound 03-5 increase in heart rate and other peripheral effects (hyperglycemia, hypokalemia)” value was “substantially attenuated”. For the same compound, in [14] (Cohort D1, nadolol 1 mg up to 40 mg pre-administered, Compound 03-5 3-12 mg), the “effect of nadolol on peripheral effects of Compound 03-5 (heart rate, glucose, potassium, tachycardia, tremor, palpitations)” value was “blocked the peripheral effects”. Moreover, in [14] (Cohort D2, nadolol 3 mg pre-administered, Compound 03-5 1-10 mg), the “effect of nadolol on peripheral effects of Compound 03-5 on heart rate, etc.” value is on record as “similarly blocked the peripheral effects”. Further, the “effects of Compound 03-5 on blood glucose and potassium, tachycardia, tremor and palpitations” value in data set [14] (pre-administration of 1 mg nadolol, 6 mg Compound 03-5) is “Concomitant attenuation”. Further, the “hypokalemia caused by Compound 03-5” value in data set [14] (subjects dosed with nadolol 1-40 mg, Cohorts D1 and D2) was “attenuation of hypokalemia”.

On to `CC(C)NCC(O)COc1cccc2[nH]ccc12` (stereo not drawn) [pindolol], for which, in data set [10], the “effect on the VVLT (learning and memory)” value is given as “detrimental effect”.

On to `CC(C)(C)NC[C@H](O)c1cccc(C#N)n1` [Compound 03-5, (S)-6-(2-(tert-butylamino)-1-hydroxyethyl)picolinonitrile], for which the “performance in the CANTAB cognition battery” value in data set [15] was “improvements in performance in the CANTAB cognition battery were observed”. The “mean maximum increase in heart rate” value in data set [16] is reported as 7 beats per minute. Further, the “hypokalemia (blood potassium levels)” value in [14] (Compound 03-5 monotherapy 0.3 mg-6 mg, Cohorts A1-A5) is “Dose-dependent increases in hypokalemia”.

Source of the values: patent US20260207568A1, “COMPOSITIONS AND METHODS FOR IMPROVING NEUROLOGICAL DISEASES AND DISORDERS” (CuraSen Therapeutics, Inc., priority 2022, published 2026).
